# Experimental data taken from PubChem BioAssay (NCI).
#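 GI50 marks 50% less growth. TGI: total growth inhibition.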
# Experiments:
# Test in all cases: NCI anticancer screen, dose series, 384-well format
# A498 renal = tested on: A498 renal
# A549 NSCLC = tested on: A549 NSCLC
# ACHN renal = tested on: ACHN renal
# BT-549 breast = tested on: BT-549 breast
# CAKI-1 renal = tested on: CAKI-1 renal
# COLO 205 colon = tested on: COLO 205 colon
# DU-145 prostate = tested on: DU-145 prostate
# EKVX NSCLC = tested on: EKVX NSCLC
# HCC-2998 colon = tested on: HCC-2998 colon
# HCT-116 colon = tested on: HCT-116 colon
# HCT-15 colon = tested on: HCT-15 colon
# HL-60(TB) leukemia = tested on: HL-60(TB) leukemia
# HOP-62 NSCLC = tested on: HOP-62 NSCLC
# HOP-92 NSCLC = tested on: HOP-92 NSCLC
# HS 578T breast = tested on: HS 578T breast
# HT29 colon = tested on: HT29 colon
# IGROV1 ovarian = tested on: IGROV1 ovarian
# KM12 colon = tested on: KM12 colon
# LOX IMVI melanoma = tested on: LOX IMVI melanoma
# M14 melanoma = tested on: M14 melanoma
# MALME-3M melanoma = tested on: MALME-3M melanoma
# MCF7 breast = tested on: MCF7 breast
# MDA-MB-231 breast = tested on: MDA-MB-231 breast
# MDA-MB-435 melanoma = tested on: MDA-MB-435 melanoma
# MDA-MB-468 breast = tested on: MDA-MB-468 breast
# MOLT-4 leukemia = tested on: MOLT-4 leukemia
# NCI-H226 lung = tested on: NCI-H226 lung
# NCI-H23 lung = tested on: NCI-H23 lung
# NCI-H322M lung = tested on: NCI-H322M lung
# NCI-H460 NSCLC = tested on: NCI-H460 NSCLC
# NCI-H522 lung = tested on: NCI-H522 lung
# NCI/ADR-RES ovarian = tested on: NCI/ADR-RES ovarian
# OVCAR-3 ovarian = tested on: OVCAR-3 ovarian
# OVCAR-4 ovarian = tested on: OVCAR-4 ovarian
# OVCAR-5 ovarian = tested on: OVCAR-5 ovarian
# OVCAR-8 ovarian = tested on: OVCAR-8 ovarian
# PC-3 prostate = tested on: PC-3 prostate
# RPMI-8226 leukemia = tested on: RPMI-8226 leukemia
# RXF 393 renal = tested on: RXF 393 renal
# SF-268 CNS = tested on: SF-268 CNS
# SF-295 CNS = tested on: SF-295 CNS
# SF-539 CNS = tested on: SF-539 CNS
# SK-MEL-28 melanoma = tested on: SK-MEL-28 melanoma
# SK-MEL-5 melanoma = tested on: SK-MEL-5 melanoma
# SK-OV-3 ovarian = tested on: SK-OV-3 ovarian
# SN12C renal = tested on: SN12C renal
# SNB-19 CNS = tested on: SNB-19 CNS
# SNB-75 CNS = tested on: SNB-75 CNS
# SR leukemia = tested on: SR leukemia
# T-47D breast = tested on: T-47D breast
# TK-10 renal = tested on: TK-10 renal
# U251 glioblastoma = tested on: U251 glioblastoma
# UACC-257 melanoma = tested on: UACC-257 melanoma
# UACC-62 melanoma = tested on: UACC-62 melanoma
structure (smiles),measurement,setting,value
O=C(CCCCCCNC(=O)c1cnc(N(c2ccccc2)c2ccccc2)nc1)NO,GI50,A498 renal,3.49 µM
same,TGI,A498 renal,16.2 µM
same,GI50,A549 NSCLC,10.1 µM
same,TGI,A549 NSCLC,25 µM
same,GI50,ACHN renal,7.93 µM
same,TGI,ACHN renal,22.1 µM
same,GI50,BT-549 breast,3.08 µM
same,TGI,BT-549 breast,13.3 µM
same,GI50,CAKI-1 renal,4.36 µM
same,TGI,CAKI-1 renal,16.6 µM
same,GI50,COLO 205 colon,2000 nM
same,TGI,COLO 205 colon,3.9 µM
same,GI50,DU-145 prostate,2180 nM
same,TGI,DU-145 prostate,5.88 µM
same,GI50,EKVX NSCLC,11.3 µM
same,TGI,EKVX NSCLC,43.8 µM
same,GI50,HCC-2998 colon,2700 nM
same,TGI,HCC-2998 colon,8.93 µM
same,GI50,HCT-116 colon,2790 nM
same,TGI,HCT-116 colon,10.5 µM
same,GI50,HCT-15 colon,13 µM
same,TGI,HCT-15 colon,41.6 µM
same,GI50,HL-60(TB) leukemia,2360 nM
same,TGI,HL-60(TB) leukemia,3.82 µM
same,GI50,HOP-62 NSCLC,2310 nM
same,TGI,HOP-62 NSCLC,10.3 µM
same,GI50,HOP-92 NSCLC,3.26 µM
same,TGI,HOP-92 NSCLC,13.4 µM
same,GI50,HS 578T breast,1970 nM
same,TGI,HS 578T breast,6.37 µM
same,GI50,HT29 colon,3.14 µM
same,TGI,HT29 colon,13.2 µM
same,GI50,IGROV1 ovarian,2130 nM
same,TGI,IGROV1 ovarian,6.57 µM
same,GI50,KM12 colon,3.53 µM
same,TGI,KM12 colon,16.1 µM
same,GI50,LOX IMVI melanoma,1970 nM
same,TGI,LOX IMVI melanoma,4.3 µM
same,GI50,M14 melanoma,3.7 µM
same,TGI,M14 melanoma,14.8 µM
same,GI50,MALME-3M melanoma,1490 nM
same,TGI,MALME-3M melanoma,5.49 µM
same,GI50,MCF7 breast,2180 nM
same,TGI,MCF7 breast,11.8 µM
same,GI50,MDA-MB-231 breast,2190 nM
same,TGI,MDA-MB-231 breast,6.61 µM
same,GI50,MDA-MB-435 melanoma,2380 nM
same,TGI,MDA-MB-435 melanoma,5.28 µM
same,GI50,MDA-MB-468 breast,1500 nM
same,TGI,MDA-MB-468 breast,4.12 µM
same,GI50,MOLT-4 leukemia,1340 nM
same,TGI,MOLT-4 leukemia,2620 nM
same,GI50,NCI-H226 lung,10.7 µM
same,TGI,NCI-H226 lung,26.2 µM
same,GI50,NCI-H23 lung,4.27 µM
same,TGI,NCI-H23 lung,21.2 µM
same,GI50,NCI-H322M lung,3.52 µM
same,TGI,NCI-H322M lung,16.9 µM
same,GI50,NCI-H460 NSCLC,2220 nM
same,TGI,NCI-H460 NSCLC,11.3 µM
same,GI50,NCI-H522 lung,2140 nM
same,TGI,NCI-H522 lung,8.63 µM
same,GI50,NCI/ADR-RES ovarian,8.89 µM
same,TGI,NCI/ADR-RES ovarian,84.1 µM
same,GI50,OVCAR-3 ovarian,2010 nM
same,TGI,OVCAR-3 ovarian,8.19 µM
same,GI50,OVCAR-4 ovarian,3.22 µM
same,TGI,OVCAR-4 ovarian,13 µM
same,GI50,OVCAR-5 ovarian,1840 nM
same,TGI,OVCAR-5 ovarian,4.8 µM
same,GI50,OVCAR-8 ovarian,2120 nM
same,TGI,OVCAR-8 ovarian,13.9 µM
same,GI50,PC-3 prostate,2520 nM
same,TGI,PC-3 prostate,8.1 µM
same,GI50,RPMI-8226 leukemia,573 nM
same,TGI,RPMI-8226 leukemia,1810 nM
same,GI50,RXF 393 renal,4.37 µM
same,TGI,RXF 393 renal,17.4 µM
same,GI50,SF-268 CNS,2860 nM
same,TGI,SF-268 CNS,10.1 µM
same,GI50,SF-295 CNS,4.5 µM
same,TGI,SF-295 CNS,15.6 µM
same,GI50,SF-539 CNS,5.25 µM
same,TGI,SF-539 CNS,22.4 µM
same,GI50,SK-MEL-28 melanoma,3.23 µM
same,TGI,SK-MEL-28 melanoma,12.8 µM
same,GI50,SK-MEL-5 melanoma,2020 nM
same,TGI,SK-MEL-5 melanoma,4.16 µM
same,GI50,SK-OV-3 ovarian,2920 nM
same,TGI,SK-OV-3 ovarian,14.1 µM
same,GI50,SN12C renal,2480 nM
same,TGI,SN12C renal,8.92 µM
same,GI50,SNB-19 CNS,3.59 µM
same,TGI,SNB-19 CNS,12.9 µM
same,GI50,SNB-75 CNS,4.65 µM
same,TGI,SNB-75 CNS,30.3 µM
same,GI50,SR leukemia,323 nM
same,TGI,SR leukemia,1200 nM
same,GI50,T-47D breast,1730 nM
same,TGI,T-47D breast,4.32 µM
same,GI50,TK-10 renal,3.37 µM
same,TGI,TK-10 renal,12.5 µM
same,GI50,U251 glioblastoma,1850 nM
same,TGI,U251 glioblastoma,4.3 µM
same,GI50,UACC-257 melanoma,1070 nM
same,TGI,UACC-257 melanoma,5.12 µM
same,GI50,UACC-62 melanoma,1550 nM
same,TGI,UACC-62 melanoma,4.13 µM
